The test system of this experiment is M. tuberculosis H37Rv growth inhibition. The experiment is described as follows: M. tuberculosis H37Rv growth inhibitors, H37Rv strain (AID 1626). The settings on record: for IC90: measured here: IC90 against H37Rv; for CC50: measured here: Vero cell cytotoxicity.

The IC90 is the concentration at which the effect reaches the 90% level. Molecule `COc1ccc(NC(C#N)c2ccc(OC)cc2)cc1` (stereo not given) displayed a concentration for an effect of 90% (IC90) greater than 100 µM.
By IC50 is commonly meant the concentration that inhibits the measured activity by half. Broadly, the CC50 is the concentration at which the toxic effect on the cells reaches its halfway point. Higher therefore signals better tolerance by the cells. Turning to `CC(=O)c1cccc(NC(=O)/C=C/c2ccc([N+](=O)[O-])s2)c1`, the IC50 was 6.51 µM, the 90% effect concentration (IC90) worked out at 57.4 µM and the 50% cytotoxic concentration (CC50) is greater than 40 µM.
Consider `CCOC(=O)c1ccc(NC(=O)CCSCCc2ccccn2)cc1`, for which the half-maximal inhibitory concentration (IC50) is 55.4 µM and the concentration for an effect of 90% (IC90) was greater than 100 µM.
Turning to `COc1ccc(-c2cc(C(F)(F)F)n3ncc(C(=O)N4CCCCC4c4cccnc4)c3n2)cc1` (stereo not given), the concentration for an effect of 90% (IC90) was greater than 100 µM.
In turn, `CCCc1ccc(-c2cc(C(=O)NC3=NCCS3)c3ccccc3n2)cc1` had an IC90 greater than 100 µM and a CC50 greater than 40 µM.
As to `Cc1ccc(-n2c(-c3ccc(Br)cc3)c[n+]3c2CCc2ccc4cccnc4c2-3)cc1`, the IC50 was 0.76 µM, the IC90 came to 1.07 µM and the CC50 came to 5.51 µM.
With `CCCCC(=O)Nc1ccc2c(c1)oc1ccccc12`, the IC90 is greater than 100 µM.
`CC(=O)C1=C(C)NC(SCC(=O)c2ccc(Cl)c(Cl)c2)=C(C#N)C1c1ccco1` (stereo not given): the 50% inhibitory concentration (IC50) was 5.85 µM, the concentration for an effect of 90% (IC90) came out at 6.67 µM and the 50% cytotoxic concentration (CC50) was greater than 40 µM.
Consider `O=C(CSc1nnc(-c2ccccc2Br)o1)N1CCc2ccccc2C1`, for which the IC50 is 2.32 µM and the IC90 amounted to 3.38 µM.
For the molecule `O=C(Nc1nc(-c2ccccn2)cs1)c1ccc(Br)s1`, the IC50 was less than 0.195 µM, the 90% effect concentration (IC90) came to 0.585 µM and the CC50 came to 2.73 µM.
The corresponding values for `c1ccc2c(-c3nc(C4CCCCC4)no3)cc(-c3ccncc3)nc2c1` are 7 µM, 10.9 µM and greater than 40 µM.
The corresponding values for `CCC(=O)Nc1nc2ccccc2n1Cc1ccccc1C` are 1.47 µM, greater than 100 µM and greater than 40 µM.
Regarding `O=C(Nc1ncc(Cc2cccc(Cl)c2)s1)C1=NCCN1`, the IC50 is 6.98 µM, the concentration for an effect of 90% (IC90) was greater than 100 µM and the CC50 is greater than 40 µM.
In the case of `c1coc(CNc2nc(N3CCCCC3)nc3ccccc23)c1`, the half-maximal inhibitory concentration (IC50) was 1.49 µM, the concentration for an effect of 90% (IC90) was 1.69 µM and the CC50 is greater than 40 µM.
`O=C(COc1ccc(Cl)cc1)Nc1ccc2c(c1)CCC2`: the half-inhibitory concentration (IC50) is 12.6 µM and the IC90 was greater than 100 µM.
Take `Cc1ccc2nc(N(CCCN(C)C)C(=O)c3ccc4c(c3)CCCC4)sc2c1`: the IC50 was 8.72 µM, the 90% effect concentration (IC90) worked out at 11.8 µM and the half-maximal cytotoxic concentration (CC50) is 22.6 µM.
The corresponding values for `CCOC(=O)c1c(-c2ccccc2)csc1NC(=O)c1cc2ccccc2oc1=O` are less than 0.195 µM, 0.623 µM and greater than 40 µM.
As to `CCOc1ccc(NCC(=O)Nc2ccc(Cl)cc2C)cc1`, the IC50 is 8.53 µM and the concentration for an effect of 90% (IC90) was greater than 100 µM.
As to `CCN1CCN(Cc2ccc(NC(=O)c3cc(NC(=O)c4cncc(-c5ccc(C#N)cc5)c4)cc(OC)c3)cc2C(F)(F)F)CC1`, the IC50 was 4.55 µM, the IC90 was determined as 6.7 µM and the CC50 came to 5.63 µM.
The corresponding values for `O=C(NC(=O)c1ccc(C(F)(F)F)cc1)Nc1ccc(-c2cnco2)cc1` are 49.6 µM, greater than 100 µM and greater than 40 µM.
Consider `Nc1ccc2c(c1)oc1ccccc12`, for which the half-maximal inhibitory concentration (IC50) is 1.96 µM and the 90% effect concentration (IC90) is greater than 100 µM.
On to `c1ccc(CN2CCC(Nc3nc(-c4cccs4)nc4ccccc34)CC2)cc1`, for which the IC50 is 4.78 µM, the IC90 is 6.93 µM and the cytotoxic concentration (CC50) was 17.5 µM.
On to `CCOc1ccc(NC(=O)CSC2=NCCN2)cc1`, for which the IC50 is 11.6 µM and the concentration for an effect of 90% (IC90) was greater than 100 µM.
Regarding `CC(C)(C)C1CCc2c(sc3nc(SCC(N)=O)nc(N)c23)C1` (stereo not given), the IC50 is 24.8 µM, the 90% effect concentration (IC90) was greater than 100 µM and the CC50 was greater than 40 µM.
Consider `CCOc1ccc(NC(=O)CCCc2cc(-c3ccc(OCC)cc3)on2)cc1`, for which the half-inhibitory concentration (IC50) is 47.1 µM and the IC90 is greater than 100 µM.
Regarding `NC1=NC[C@H](Cc2ccc(O)cc2)N1CCCCC1CCCCC1`, the half-inhibitory concentration (IC50) is 5.33 µM and the IC90 was determined as 7.7 µM.
For the molecule `CCOc1ccc(N=Cc2c(O)n(-c3cccc(C)n3)c(=O)c3ccccc23)cc1`, the concentration for half-maximal inhibition (IC50) was 14.7 µM and the concentration for an effect of 90% (IC90) is greater than 100 µM.
The corresponding values for `O=C(NCCc1ccc(Cl)cc1)c1ccc(CNc2c(N3CCOCC3)c(=O)c2=O)cc1` are 2.85 µM and 3.19 µM.
For the molecule `COc1ccc(CNc2nc3nc4c(c(=O)n3[nH]2)CCC4)cc1`, the half-inhibitory concentration (IC50) was 1.09 µM and the 90% effect concentration (IC90) was greater than 100 µM.
For `Cc1[nH]nc2c1C(c1ccc(-c3ccc(Cl)cc3)o1)C(C#N)=C(N)O2` (stereo not given), the IC50 is 0.749 µM, the IC90 came to 91.5 µM and the CC50 was greater than 40 µM.
As to `O=C(c1cc2nc(-c3ccccc3)cc(-c3ccccc3)n2n1)N1CCN(C(=O)c2ccco2)CC1`, the IC50 was 5.92 µM, the IC90 was 17.6 µM and the CC50 was greater than 40 µM.
The corresponding values for `CCCCCCCn1c(NC(=O)CC)nc2ccccc21` are less than 0.195 µM, 1.58 µM and 29.2 µM.
As for `O=C(Nc1nc2c(F)cc(F)cc2s1)c1ccccn1`, the IC50 was 0.34 µM, the concentration for an effect of 90% (IC90) is 1.49 µM and the CC50 was 3.89 µM.
`COc1ccc(-c2csc(NC(C)c3nc4cc(Cl)c(N5CCCCC5)cc4n3CCCO)n2)cc1` (stereo not given): the IC50 is 12.7 µM, the IC90 is greater than 100 µM and the CC50 is greater than 40 µM.
Turning to `COc1ccc(NC(=O)CSc2ncn(-c3ccccc3)n2)cc1Cl`, the 90% effect concentration (IC90) was greater than 100 µM.
As for `c1ccc(-c2nc(N3CCCCCC3)nc(-n3ccnc3)n2)cc1`, the IC50 was 0.253 µM, the 90% effect concentration (IC90) turned out to be 1.9 µM and the 50% cytotoxic concentration (CC50) came to 30 µM.
The corresponding values for `O=C(Nc1nc(-c2ccccn2)cs1)C1CC1` are 3.96 µM, greater than 100 µM and greater than 40 µM.
`Cc1cc(=O)oc2cc(OC(=O)c3ccco3)ccc12`: the IC50 was 61.6 µM and the IC90 is greater than 100 µM.
`CC(C)(C)NC(=O)COC(=O)c1snc(C(=O)NC2CCCCC2)c1N`: the half-inhibitory concentration (IC50) is 1.84 µM, the IC90 worked out at 3.78 µM and the half-maximal cytotoxic concentration (CC50) is greater than 40 µM.
The matching figures for `CN(C)CCCNc1cc(C(C)(C)C)nc2c(-c3ccccc3)cnn12`: 3.17 µM, 4.9 µM and 9.79 µM.
As to `O=C(/C=C/c1ccccc1)/C=C/c1ccccc1`, the IC50 was 5.86 µM, the 90% effect concentration (IC90) is 6.68 µM and the cytotoxic concentration (CC50) turned out to be 31.2 µM.
Consider `Cc1cc(C2N=C(N)Nc3nc4ccccc4n32)c(C)n1-c1ccccc1Cl` (stereo not given), for which the IC50 is 7.61 µM and the IC90 was found to be 12.2 µM.
As for `CCCc1cc(-c2nc(-c3ccc(Br)cc3)cs2)ccn1`, the concentration for half-maximal inhibition (IC50) was 5.68 µM and the IC90 came to 10.4 µM.
`CCOC(=O)c1cnc2ccc(OCC)cc2c1NCc1ccccc1`: the IC50 was 15.7 µM, the 90% effect concentration (IC90) worked out at 22.2 µM and the CC50 was greater than 40 µM.
For `O=C(Nc1ccc(Oc2ccccc2)cc1)C1CCCO1` (stereo not given), the IC50 was 34.2 µM and the IC90 is greater than 100 µM.
Take `O=C(CSc1ncn[nH]1)Nc1ccc(Br)cc1F`: the IC50 was 29.5 µM, the IC90 was greater than 100 µM and the CC50 is greater than 40 µM.
On to `O=C(O)c1ccc(-c2nc(-c3ccc(Cl)cc3)cs2)cc1`, for which the half-maximal inhibitory concentration (IC50) is 88.6 µM, the IC90 is greater than 100 µM and the CC50 is greater than 40 µM.
The matching figures for `CCCn1c(NC(=O)c2ccco2)nc2ccccc21`: 5.87 µM, 18.6 µM and greater than 40 µM.
`O=C(Cc1cccs1)N1CCN=C1SCc1ccc(Br)cc1`: the IC90 is greater than 100 µM.
For `COC(=O)CSc1nc2ccccc2nc1SCC(=O)OC`, the 50% inhibitory concentration (IC50) was 4.87 µM and the 90% effect concentration (IC90) was 12.5 µM.
Consider `CCOC(=O)C(C)Sc1nnc(NC(=O)c2ccc(C)c([N+](=O)[O-])c2)s1` (stereo not given), for which the IC50 was 6.69 µM and the 90% effect concentration (IC90) amounted to 12.1 µM.
In the case of `Cc1ccc(Cn2ccc(=O)c(OCc3c(Cl)cccc3Cl)c2C)cc1`, the half-maximal inhibitory concentration (IC50) was 8.57 µM, the concentration for an effect of 90% (IC90) was 11.8 µM and the cytotoxic concentration (CC50) is greater than 40 µM.
For the molecule `CCCCn1c(=O)c(C(=O)Nc2cnccn2)c(O)c2ccccc21`, the half-maximal inhibitory concentration (IC50) is 5.79 µM, the IC90 worked out at 6.45 µM and the cytotoxic concentration (CC50) was found to be 18.2 µM.
As for `COc1ccc(N2CSC3=C(C#N)C(c4cccc(OC)c4OC)CC(=O)N3C2)cc1` (stereo not given), the IC50 is 54.7 µM and the IC90 is greater than 100 µM.
Take `CCOc1ccc(NCc2nnc(SCC(=O)Nc3cc(C)on3)n2-c2ccc(OC)cc2)cc1`: the IC50 is 35.3 µM and the IC90 was greater than 100 µM.
The matching figures for `Cc1nc(NCc2ccc3c(c2)OCO3)c2oc3ccccc3c2n1`: 7.7 µM and 21.8 µM.
For the molecule `O=C(CSc1ncnc2sc3c(c12)CCCC3)N1CCC(c2noc3ccc(F)cc23)CC1`, the IC50 was 2.94 µM, the IC90 was found to be 4.24 µM and the half-maximal cytotoxic concentration (CC50) is greater than 40 µM.
`Cc1ccc(C2CC(C(F)(F)F)n3ncc(C(=O)NCc4ccco4)c3N2)cc1` (stereo not given): the IC50 was less than 0.195 µM and the IC90 was 3.64 µM.
The corresponding values for `O=C(CSc1nnc(CNc2cccc(Cl)c2)o1)OC1CCCCC1` are 0.661 µM and 1.4 µM.
As for `O=c1[nH][nH]c(-c2ccccc2O)c1C(C[N+](=O)[O-])c1cccc(Cl)c1` (stereo not given), the IC50 is 7.89 µM, the 90% effect concentration (IC90) stood at 13.9 µM and the 50% cytotoxic concentration (CC50) came to 26.7 µM.
The matching figures for `N=C1S/C(=C\c2ccco2)C(=O)N1c1nccs1`: less than 0.195 µM, less than 0.195 µM and 22.5 µM.
On to `CC(C)c1ccc(CNC(=O)C(=O)Nc2nccs2)cc1`, for which the IC50 is 49.8 µM and the IC90 was greater than 100 µM.
Regarding `COC(=O)c1cc(-c2ccc(OC)c(OC)c2)on1`, the IC50 is less than 0.391 µM and the concentration for an effect of 90% (IC90) was greater than 100 µM.
On to `Cn1c(N=Nc2ccccc2)nc2ccccc21`, for which the half-inhibitory concentration (IC50) was 1.04 µM, the IC90 amounted to 1.89 µM and the half-maximal cytotoxic concentration (CC50) came out at 16.1 µM.
`CCOC(=O)N1CCN=C1SCc1ccc(C(F)(F)F)cc1` showed an IC90 greater than 100 µM.
As to `CCOc1ccc(NCC(=O)Nc2ccc(C)cc2C)cc1`, the half-maximal inhibitory concentration (IC50) was 62.4 µM and the IC90 was greater than 100 µM.
